# Data published in patent publication US20110160180A1, “Cannabinoid Receptor Ligands” (ASTRAZENECA AB, priority 2008, published 2011).
# Values joined by “and” are separate entries in the source; they are usually repeats but may differ in a detail not shown here. Equal values may be shown once.
# Biological target: Human CB1 receptor (hCB1) (Homo sapiens, UniProt P21554)
# Experiment: hCB1 GTPγS binding
# Format: biochemical
# Conditions: hCB1 membranes, GTPg35S binding; maximal stimulated binding determined with 10 μM Win 55,212-2
# Experimental: hCB1 and hCB2GTPγS Binding
# Human CB1 receptor from Receptor Biology (hCB1) or human CB2 receptor membranes (BioSignal) are thawed at 37° C., passed 3 times through a 25-gauge blunt-end needle and diluted in the GTPγS binding buffer (50 mM Hepes, 20 mM NaOH, 100 mM NaCl, 1 mM EDTA, 5 mM MgCl2, pH 7.4, 0.1% BSA). […] The basal and maximal stimulated binding is determined in absence and presence of 1 μM (hCB2) or 10 μM (hCB1) Win 55,212-2 respectively. The membranes are pre-incubated for 5 minutes with 56.25 μM (hCB2) or 112.5 μM (hCB1) GDP prior to distribution in plates (15 μM (hCB2) or 30 μM (hCB1) GDP final). The plates are vortexed and incubated for 60 minutes at room temperature, filtered on Unifilters GF/B (presoaked in water) with the Tomtec or Packard harvester using 3 ml of wash buffer (50 mM Tris, 5 mM MgCl2, 50 mM NaCl, pH 7.0). The filters are dried for 1 hour at 55° C. The radioactivity (cpm) is counted in a TopCount (Packard) after adding 65 μl/well of MS-20 scintillation liquid. Antagonist reversal studies are done in the same way except that (a) an agonist dose-response curve is done in the presence of a constant concentration of antagonist, or (b) an antagonist dose-response curve is done in the presence of a constant concentration of agonist.
# Human CB1 receptor (hCB1), sequence (P21554 whole entry): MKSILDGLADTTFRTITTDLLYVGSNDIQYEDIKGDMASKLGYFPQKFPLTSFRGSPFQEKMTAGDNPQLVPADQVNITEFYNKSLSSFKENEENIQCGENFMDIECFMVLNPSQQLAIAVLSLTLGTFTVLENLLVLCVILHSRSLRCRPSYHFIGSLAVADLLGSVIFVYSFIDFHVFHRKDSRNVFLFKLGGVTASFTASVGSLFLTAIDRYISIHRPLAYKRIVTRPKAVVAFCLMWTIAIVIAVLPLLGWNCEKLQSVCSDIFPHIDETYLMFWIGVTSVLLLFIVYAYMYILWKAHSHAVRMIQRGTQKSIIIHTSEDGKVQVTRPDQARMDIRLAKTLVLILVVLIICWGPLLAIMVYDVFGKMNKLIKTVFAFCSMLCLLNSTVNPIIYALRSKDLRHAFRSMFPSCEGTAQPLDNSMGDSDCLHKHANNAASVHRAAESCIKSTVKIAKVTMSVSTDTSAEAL
row,SMILES,hCB1 EMax
1,"Cn1c2c(c3cc(C(=O)N4CC[C@H](C(=O)NCCF)C4)ccc31)CC(C1CCOCC1)CC2 (stereo partly drawn) [(3S)-N-(2-fluoroethyl)-1-[9-methyl-6-(oxan-4-yl)5,6,7,8-tetrahydrocarbazole-3-carbonyl]pyrrolidine-3-carboxamide]",113%
2,"CNC(=O)CCCN(C)C(=O)c1ccc2c(c1)c1c(n2C)CCC(C2CCOCC2)C1 (centres unmarked) [N,9-dimethyl-N-[3-(methylcarbamoyl)propyl]-6-(oxan-4-yl)-5,6,7,8-tetrahydrocarbazole-3-carboxamide]",121%
3,"CCN(CC(=O)NCCO)C(=O)c1ccc2c(c1)c1c(n2S(=O)(=O)CC)CCC(C2CCOCC2)C1 (centres unmarked) [N-ethyl-9-ethylsulfonyl-N-(2-hydroxyethylcarbamoylmethyl)-6-(oxan-4-yl)-5,6,7,8-tetrahydrocarbazole-3-carboxamide]",115%
4,"Cn1c2c(c3cc(C(=O)N4CC[C@H](C(=O)NC5CC5)C4)ccc31)CC(C1CCOCC1)CC2 (stereo partly drawn) [(3S)-N-cyclopropyl-1-[9-methyl-6-(oxan-4-yl)5,6,7,8-tetrahydrocarbazole-3-carbonyl]pyrrolidine-3-carboxamide]",127%
5,"CN(CC(=O)NC1CC1)C(=O)c1ccc2c(c1)c1c(n2C)CCC(C2CCOCC2)C1 (centres unmarked) [N-(cyclopropylcarbamoylmethyl)-N,9-dimethyl-6-(oxan-4-yl)-5,6,7,8-tetrahydrocarbazole-3-carboxamide]",107%
6,"CN(CCCC(=O)NCCF)C(=O)c1ccc2c(c1)c1c(n2C)CCC(C2CCOCC2)C1 (centres unmarked) [N-[3-(2-fluoroethylcarbamoyl)propyl]-N,9-dimethyl-6-(oxan-4-yl)-5,6,7,8-tetrahydrocarbazole-3-carboxamide]",131% and 112%
7,"CCN(CC(=O)NCCF)C(=O)c1ccc2c(c1)c1c(n2C)CCC(C2CCOCC2)C1 (centres unmarked) [N-ethyl-N-(2-fluoroethylcarbamoylmethyl)-9-methyl-6-(oxan-4-yl)-5,6,7,8-tetrahydrocarbazole-3-carboxamide]",119% and 111%
8,"CCN(CC(=O)NC1CC1)C(=O)c1ccc2c(c1)c1c(n2C)CCC(C2CCOCC2)C1 (centres unmarked) [N-(cyclopropylcarbamoylmethyl)-N-ethyl-9-methyl-6-(oxan-4-yl)-5,6,7,8-tetrahydrocarbazole-3-carboxamide]",118% and 106%
